Assay results reported in ChEMBL document CHEMBL1148300, “Synthesis and evaluation of oxazaborolidines for antibacterial activity against Streptococcus mutans” (2004).
In brackets after ≈: the same amount, converted by molar mass.

Test system: Streptococcus mutans
Test: Minimal Inhibitory Concentration ofcompound against Streptococcus mutans
Type: functional

| SMILES | MIC [mM] |
| --- | --- |
| CCCC[B-]12OCC[NH+]1CCO2 (stereo not drawn) | 6.75 (≈ 1150 µg/mL) |
| c1ccc([B-]23OCC[NH+]2CCO3)cc1 (stereo not drawn) | 6.75 (≈ 1290 µg/mL) |
| CCCCB1NC(C)C(c2ccccc2)O1 (stereo not drawn) | 2.83 (≈ 614 µg/mL) |
| CC1NB(c2ccccc2)OC1c1ccccc1 (stereo not drawn) | 1.33 (≈ 315 µg/mL) |
| CCCCB1OC(c2ccccc2)C(C)N1C (stereo not drawn) | 0.53 (≈ 123 µg/mL) |
| CC1(C)COB(c2ccccc2)N1 | 6 (≈ 1050 µg/mL) |
| CCCCB1NC(C)(C)CO1 | 3.38 (≈ 524 µg/mL) |
| CC1C(c2ccccc2)OB(c2ccccc2)N1C (stereo not drawn) | 1.55 (≈ 389 µg/mL) |
